As a reminder, the Kd is the concentration at which binding is half-saturated. Higher therefore signals weaker binding.

What all share (assay): ITC
Assay [1] relates to SAM-I riboswitch, natural k-turn (RNA, riboswitch) GGCUUAUCAAGAGAGGUGGAGGGACUGGCCCGACGAAACCCGGCAACCAGAAAUGGUGCCAAUUCCUGCAGCGGAAACGUUGAAAGAUGAGCCG
To be noted: 100 mM KCl, 10 mM MgCl2; 50 mM HEPES pH 7.5, 30 °C.

Assay [2] relates to SAM-I riboswitch A1nU (RNA, riboswitch) GGCUUAUCAAGAGAGGUGGUGGGACUGGCCCGACGAAACCCGGCAACCAGAAAUGGUGCCAAUUCCUGCAGCGGAAACGUUGAAAGAUGAGCCG
The settings on record: 100 mM KCl, 10 mM MgCl2; 50 mM HEPES pH 7.5, 30 °C; 100 μM SAM titrated into 10 μM RNA; no heat evolved.

In assay [3] the test system is SAM-I riboswitch G2nU, G3nU (RNA, riboswitch) GGCUUAUCAAGAGAGGUUUAGGGACUGGCCCGACGAAACCCGGCAACCAGAAAUGGUGCCAAUUCCUGCAGCGGAAACGUUGAAAGAUGAGCCG
The settings on record: 100 mM KCl, 10 mM MgCl2; 50 mM HEPES pH 7.5, 30 °C.

Assay [4] relates to SAM-I riboswitch G3nU (RNA, riboswitch) GGCUUAUCAAGAGAGGUUGAGGGACUGGCCCGACGAAACCCGGCAACCAGAAAUGGUGCCAAUUCCUGCAGCGGAAACGUUGAAAGAUGAGCCG
The settings on record: 100 mM KCl, 10 mM MgCl2; 50 mM HEPES pH 7.5, 30 °C.

Assay [5] relates to SAM-I riboswitch G2nC (RNA, riboswitch) GGCUUAUCAAGAGAGGUGCAGGGACUGGCCCGACGAAACCCGGCAACCAGAAAUGGUGCCAAUUCCUGCAGCGGAAACGUUGAAAGAUGAGCCG
The settings on record: 100 mM KCl, 10 mM MgCl2; 50 mM HEPES pH 7.5, 30 °C; 100 μM SAM titrated into 10 μM RNA; no heat evolved.

Assay [6] relates to SAM-I riboswitch G2nA (RNA, riboswitch) GGCUUAUCAAGAGAGGUGAAGGGACUGGCCCGACGAAACCCGGCAACCAGAAAUGGUGCCAAUUCCUGCAGCGGAAACGUUGAAAGAUGAGCCG
The settings on record: 100 mM KCl, 10 mM MgCl2; 50 mM HEPES pH 7.5, 30 °C.

The subject of assay [7] is SAM-I riboswitch A1nC, G2nU, G3nU (RNA, riboswitch) GGCUUAUCAAGAGAGGUUUCGGGACUGGCCCGACGAAACCCGGCAACCAGAAAUGGUGCCAAUUCCUGCAGCGGAAACGUUGAAAGAUGAGCCG
To be noted: 100 mM KCl, 10 mM MgCl2; 50 mM HEPES pH 7.5, 30 °C; 100 μM SAM titrated into 10 μM RNA; no heat evolved.

The subject of assay [8] is SAM-I riboswitch A1nC (RNA, riboswitch) GGCUUAUCAAGAGAGGUGGCGGGACUGGCCCGACGAAACCCGGCAACCAGAAAUGGUGCCAAUUCCUGCAGCGGAAACGUUGAAAGAUGAGCCG
The settings on record: 100 mM KCl, 10 mM MgCl2; 50 mM HEPES pH 7.5, 30 °C; 100 μM SAM titrated into 10 μM RNA; no heat evolved.

As to `C[S+](CC[C@H](N)C(=O)O)C[C@H]1O[C@@H](n2cnc3c(N)ncnc32)[C@H](O)[C@@H]1O` (some centres unmarked), the Kd in assay [1] worked out at 0.54 ± 0.25 µM; in assay [3], 1.95 ± 0.27 µM; in assay [4], 0.34 ± 0.04 µM; in assay [6], 0.31 ± 0.06 µM. For the same compound, the binding entry in assay [2], in assay [5], in assay [7] and in assay [8] was “no” each time.

These data come from publication PMC3651934 (2011).
